# Reference: patent publication US4450155A, “Analgesic dipeptide amides and method of use and compositions thereof” (Sterling Drug Inc., priority 1982, dated 1984)
# Where two headings read alike, the source gives them in different places. Where a SMILES comes first, the peptide text is derived from it. The star is where a group is joined. NHPhenethyl = c1ccc(CCN*)cc1
# What was measured:
# [1] = system: guinea pig ileum longitudinal muscle with adhering myenteric plexus; assay: Guinea pig ileum test (electrically stimulated longitudinal muscle, inhibition of twitch height); type: cell-based; details: ratio of IC50 of reference compound Met^5-enkephalin to IC50 of test compound in the same preparation, averaged (N=4); reference given as 100
# Experimental: Adult male guinea pigs (Charles River, Hartley strain) weighing 300-500 g. are decapitated, and the terminal ileum is exposed by reflecting the overlying cecum, severed at the ileocecal juncture, and removed while cutting the mesenteric attachments to avoid excessive traction on the tissue. The ileum (about 30 cm. in length) is transferred to a beaker containing warm modified Krebs-Henseleit solution (118 mM sodium chloride, 4.75 mM potassium chloride, 2.54 mM calcium chloride, 1.19 mM potassium dihydrogen phosphate, 1.2 mM magnesium sulfate, 25 mM sodium bicarbonate, 11 mM glucose, 20 μM choline chloride and 0.125 μM pyrilamine maleate). The terminal (aboral) portion (about 10 cm. in length) is discarded, and segments (3-4 cm. in length) are cut from the remainder and gently slid onto a glass rod (5-6 mm. in diameter) and arranged so that the mesenteric attachment is in a straight line. A cotton swab moistened in the solution is then carefully used to separate the longitudinal muscle from the underlying circular muscle. The longitudinal muscle and adhering myenteric plexus is then gently removed from the remaining tissue with forceps.
# Strips of this prepared longitudinal muscle are mounted in a double-jacketed organ bath (5 ml.) under tension (1.0 g.), connected to isometric transducers (Grass FT .03), bathed in the modified Krebs-Henseleit solution described above, aerated with oxygen-carbon dioxide (95:5) and maintained at 37° C.
# Stimulators (Grass S-44) are set to deliver repetitive monophasic square wave field stimulation (supramaximal voltage, 0.10 Hz., 0.25 msec. duration) through platinum ring electrodes at the top and bottom of the bath. Regular contractions of the muscle, which result from electrically-induced liberation of acetylcholine from postganglionic parasympathetic nerves, are recorded on a polygraph (Grass model 5). Following tissue equilibration (45-60 min.) and repeated washing (every 10 min.) an aqueous solution of a reference or test compound is added to the bath in a microliter volume (1.25-250 μl) and reductions in muscle twitch height are recorded. More compound can be added […] first washing the preparation.
# From the results a half-maximal inhibitory concentration (IC50) value for the compound is computed by regression analysis of a linear plot of logarithm of concentration against percent of inhibition of twitch height (probits). The ratio of the IC50 value of a reference compound to that of a test compound tested in the same preparation is the molar potency ratio. Usually four preparations are tested simultaneously by the same person (N=4), and the resulting four molar potency ratios are averaged. […]
# rat = details: relative to morphine, cited from earlier work
# opiate receptor = details: rat brain membranes, relative to morphine; cited from earlier work
# guinea pig ileum = guinea pig ileum test; cited from earlier work
# mouse vas deferens = mouse vas deferens test; cited from earlier work
compound,measurement,setting,value
"N[C@@H](Cc1ccc(O)cc1)C(=O)N1CCC[C@H]1C(=O)NCCc1ccccc1 [Example 1, L-tyrosyl-N-(2-phenylethyl)-L-prolinamide] (H-Tyr-Pro-NHPhenethyl)",Average Molar Potency Ratio,[1],117
"N[C@@H](Cc1ccc(O)cc1)C(=O)N1CCC[C@H]1C(=O)NCCCc1ccccc1 [Example 2, L-tyrosyl-N-(3-phenylpropyl)-L-prolinamide]",Average Molar Potency Ratio,[1],6
"CN(CCCc1ccccc1)C(=O)[C@@H]1CCCN1C(=O)[C@@H](N)Cc1ccc(O)cc1 [Example 3, L-tyrosyl-N-methyl-N-(3-phenylpropyl)-L-prolinamide]",Average Molar Potency Ratio,[1],9
C[C@@H](NC(=O)[C@@H](N)Cc1ccc(O)cc1)C(N)=O [H-Tyr-D-Ala-NH2],"times less potent than morphine, tail flick test",rat; intravenously,greater than 10 times
same,"times less potent than morphine, tail flick test",rat; intraventricularly,200 times
same,"times less affinity than morphine, opiate receptor binding",opiate receptor,830 times
C[C@@H](NC(=O)[C@@H](N)Cc1ccc(O)cc1)C(=O)NCCNCCc1ccccc1 [HTyrD-AlaNH(CH2)2 NH(CH2)2 Phenyl],potency relative to Met-enkephalin,guinea pig ileum,< 1%
same,potency relative to Met-enkephalin,mouse vas deferens,< 1%
Met^5 -enkephalin [Met^5 --enkephalin],Average Molar Potency Ratio,[1],100
